Patent publication US7629347B2, “Protein tyrosine kinase inhibitors” (Critical Outcome Technologies, Inc., priority 2002, dated 2009)
Where a name gives a salt, the structure may show the parent alone. Read-outs that look alike come from different tables or passages of the source.

Legend:
Leukemia Cell Line P388 = test: in vitro test on cell line P388; format: cell-based, murine; conditions: Mus musculus
Method: (§1) The COTI-001 compound was tested in vitro on a variety of cell lines comparing its effect to a known protein tyrosine kinase inhibitor used in the treatment of certain cancers.

[1] = test system: Breast Cancer Cell Line MCF7; test: in vitro test on cell line MCF7; format: cell-based; conditions: Homo sapiens, MCF7, read-out: Actual −Log(GI50) (converted)
Method: as §1

Leukemia Cell Line K562 = test: in vitro test on cell line K562; format: cell-based; conditions: Homo sapiens
Method: as §1

mice [2] = test: in vivo toxicity study in mice
Method: (§2) Five groups of mice (3 mice per group) were administered a 50 mg/kg dosage of Formula II.

mice [3] = conditions: mouse, in vivo, 50 mg/kg
Method: as §2

Compound	GI50 (Leukemia Cell Line P388; P388, read-out: Actual −Log(GI50) (converted)) [nM]	GI50 [1] [nM]	GI50 (Leukemia Cell Line K562; K562, read-out: Actual −Log(GI50) (converted)) [nM]	tolerated dosage (mice [2]) [mg/kg]	tolerability of dosage (mice [2]; 50 mg/kg dosage)	GI50 (Leukemia Cell Line P388; Leukemia Cell Line P388, in vitro result, read-out: Actual −Log(GI50) (converted)) [nM]	GI50 (Leukemia Cell Line K562; Leukemia Cell Line K562, in vitro result, read-out: Actual −Log(GI50) (converted)) [nM]	tolerability of dosage (mice [3])
CC1CN=C(c2ccc(NC(=O)c3ccc(C(=O)Nc4ccc(C5=NCC(C)CN5)cc4)nc3)cc2)NC1 (centres unmarked) [Formula II, N,N′-Bis[4-(1,4,5,6-tetrahydro-5-methyl-2-pyrimidinyl)phenyl]-2,5-pyridinedicarboxamide dihydrochloride]	1000	20000	20000	≤ 25	not tolerated	–	–	–
Cc1ccc(NC(=O)c2ccc(CN3CCN(C)CC3)cc2)cc1Nc1nccc(-c2cccnc2)n1 [Gleevec ™, reference compound]	–	–	–	–	–	2000	1000	able to tolerate this dosage amount
